Laboratory results taken from PubChem BioAssay (NCI).
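Test compounds were applied to cells in 96-well plates for 48 hours at 5 doses. Here, GI50 denotes the concentration required for 50% inhibition of growth. The concentration for full growth arrest is given as TGI.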

Columns and labels:
Assay in all cases: NCI tumour cell line growth inhibition, 48 h
HOP-62 NSCLC = test system: HOP-62 NSCLC
NCI-H226 lung = test system: NCI-H226 lung
MALME-3M melanoma = test system: MALME-3M melanoma
SK-MEL-28 melanoma = test system: SK-MEL-28 melanoma
CCRF-CEM leukemia = test system: CCRF-CEM leukemia
COLO 205 colon = test system: COLO 205 colon
SNB-19 CNS = test system: SNB-19 CNS
SF-539 CNS = test system: SF-539 CNS
SNB-75 CNS = test system: SNB-75 CNS
HS 578T breast = test system: HS 578T breast

Structure (SMILES) | TGI (HOP-62 NSCLC) [µM] | TGI (NCI-H226 lung) [µM] | TGI (MALME-3M melanoma) [µM] | TGI (SK-MEL-28 melanoma) [µM] | TGI (CCRF-CEM leukemia) [µM] | TGI (COLO 205 colon) [µM] | TGI (SNB-19 CNS) [µM] | TGI (SF-539 CNS) [µM] | TGI (SNB-75 CNS) [µM] | GI50 (HOP-62 NSCLC) [µM] | GI50 (NCI-H226 lung) [µM] | GI50 (MALME-3M melanoma) [µM] | GI50 (SK-MEL-28 melanoma) [µM] | GI50 (CCRF-CEM leukemia) [µM] | GI50 (COLO 205 colon) [µM] | GI50 (HS 578T breast) [µM] | TGI (HS 578T breast) [µM] | GI50 (SF-539 CNS) [µM] | GI50 (SNB-75 CNS) [µM]
COc1ccc(OCC(C)(C)O)cc1 | > 100 | > 100 | > 100 | > 100 | > 100 | > 100 | > 100 | > 100 | > 86.9 | – | – | – | – | – | – | – | – | – | –
CCCCCCCCCC[N+](C)(C)C | 3.07 | 8.97 | 8.96 | 12.2 | 2.32 | 2.59 | – | 5.9 | 3.69 | 1.18 | 2.37 | 2.25 | 3.07 | 0.739 | 1.28 | 2.22 | 6.38 | 2.17 | 1.26
COc1ccc2c(c1)c(=O)c1c(NCCCN(C)C)ccc3ncn2c31 | 15 | 22.2 | 26 | 26.4 | 45.3 | 18.6 | 20.5 | 17 | 19.8 | – | – | – | – | – | – | – | 29.3 | – | –
CSS(C)(=O)=O | > 100 | 43.5 | 48.4 | 48 | > 100 | 40.1 | > 100 | 37 | 94.1 | – | – | – | – | – | – | – | > 100 | – | –
CCOC(=O)/C=C/c1c[nH]c(=O)[nH]c1=O | > 75 | > 75 | > 75 | > 75 | > 75 | > 75 | > 75 | > 75 | > 75 | – | – | – | – | – | – | – | – | – | –
c1ccc(N2N=C3N(c4ccccc4)C2N3c2ccccc2)cc1 | > 100 | – | 38.2 | 43.4 | 71.8 | 49.1 | > 100 | 74.9 | 64.5 | – | – | – | – | – | – | – | > 100 | – | –
COc1ccc(-c2c3c(nc4[nH]c(=S)[nH]c(=S)c24)CCCC3)cc1OC | > 100 | – | > 100 | 70.7 | 73.1 | > 100 | > 100 | 28.6 | 51.2 | – | – | – | – | – | – | – | 54.4 | – | –
CCOC(=O)C1=C(C)N(C2OC(COC(C)=O)C(OC(C)=O)C(OC(C)=O)C2OC(C)=O)C(=O)NC1c1ccccc1 (stereo not given) | > 100 | > 100 | > 100 | > 100 | > 100 | > 100 | > 100 | > 100 | > 100 | – | – | – | – | – | – | – | – | – | –
CC(c1ccccc1)C(O)S(=O)(=O)O (stereo not given) | – | > 100 | > 100 | > 100 | > 100 | > 100 | > 100 | > 100 | > 100 | – | – | – | – | – | – | – | – | – | –
CCCCn1c(C)c2c(c1C)C(=O)N(CCN1CCN(c3ccccc3Cl)CC1)C2=O | 93.3 | > 100 | 50.2 | – | 75.7 | > 100 | > 100 | 38 | 90.2 | – | – | – | – | – | – | – | > 100 | – | –
